Results published in article PMC8352664 (The Journal of Biological Chemistry, 2021).

Test system: CD8^+ T cells in PBMCs from convalescent COVID-19 patients
Type: cell-based, human

Sequence: YLQPSTFLL [S^269–277R273S]
- HLA-A2^S269–277+CD8+ T cell cross-reactivity between WT S^269–277 and variant peptide: no HLA-A2^S269–277+CD8^+ T cell cross-reactivity
